Data set [1] has as its system HCV replicon cells Huh 9B (genotype 1b). As to the kind of experiment: 1b Replicon Assay (luciferase readout). It is filed as cell-based. As to conditions: Hepatitis C virus, Huh 9B replicon cells, 72 h, luciferase activity. A general note: In antiviral work, replicon cells carry a viral genome segment that copies itself.
Data set [2] concerns HCV genotype 1a replicon cells Htat2ANeo. As to the kind of experiment: 1a Replicon Assay (cell-based anti-NS5a ELISA). As to conditions: Hepatitis C virus, 72 h. Summed up: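 HCV 1a Htat2ANeo replicon cells (Et2AN control cells) exposed to compound for 72 h at 37° C without G418/blasticidin. NS5a quantified by cell-based ELISA (anti-NS5a, HRP/OPD, A490); IC50 from percentage reduction versus untreated control. Cytotoxicity TD50 by Cell Titre Blue fluorescence (ex 570/em 590 nm) versus DMSO controls.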

Data set [3] has as its system HCV replicon cells Huh 9B. It is filed as cell-based. As to conditions: Huh 9B replicon cells, 72 h, methylene blue, total cell area reduced by 50%. On the procedure: HCV replicon cells Huh 9B (ReBlikon), containing the firefly luciferase-ubiquitin-neomycin phosphotransferase fusion protein and EMCV-IRES driven HCV polyprotein with cell culture adaptive mutations.
Replicon cells were trypsinised and counted. Cells were diluted to 100,000 cells/ml and 100 μl used to seed one opaque white 96-well plate (for the replicon assay) and one flat-bottomed clear plate (for the tox assay) for every five compounds to be tested for IC50. Wells G12 and H12 were left empty in the clear plate as the blank. Plates were then incubated at 37° C./5% CO2 for 24 h.
On the following day compound dilutions were prepared in medium at twice their desired final concentration in a clear round bottomed plate. All dilutions have a final DMSO concentration of 1%.
Controls and compounds were transferred from the dilution plates to the assay plates (containing the cells) at 100 μl/well in duplicate wells.
Exception: no compound was added to wells A1 and A2 of either plate and 100 μl of 1% DMSO was added to these instead. Plates were then incubated at 37° C./5% CO2 for 72 h.
The clear plate was stained with 100 μA 0.5% methylene blue in 50% ethanol at room temperature for 1 h, followed by solvation of the absorbed methylene blue in 100 μl per well of 1% lauroylsarcosine. Absorbance of the plate was measured on a microplate spectrophotometer (Molecular Devices) and the absorbance for each concentration of compound expressed as a proportion of the relative DMSO control. The TD50, the is concentration of drug required to reduce the total cell area by 50% relative to the DMSO controls, was calculated by plotting the absorbance at 620 nm after background substraction against drug concentration.

Setting [4] is: read-out: pIC50 1b Replicon (converted).
Setting [5] is: read-out: pIC50 1a Replicon (converted).

SMILES strings stand for the structures. Read-outs that look alike come from different tables or passages of the source.

For the compound `COC(=O)N[C@@H](CO)C(=O)N1CCC[C@H]1c1ncc(-c2ccc(-c3ccc(C(=O)Nc4ccc(CN5CCS(=O)(=O)CC5)cc4)cc3)cc2)[nH]1` [Example 11, Methyl N-[(1S)-2-[(2S)-2-[5-[4-[4-[[4-[(1,1-dioxo-1,4-thiazinan-4-yl)methyl]phenyl]carbamoyl]phenyl]phenyl]-1H-imidazol-2-yl]pyrrolidin-1-yl]-1-(hydroxymethyl)-2-oxo-ethyl]carbamate], the IC50 in data set [1] (read-out: HCV IC50 1b Replicon) was 1.13 nM; in data set [1] (setting [4]), 1.12 nM; in data set [2] (read-out: HCV IC50 Elisa 1a) it was 19 nM; in data set [2] (setting [5]), 19.1 nM. Besides, the “HCV TD50 Replicon” value in data set [3] was >21 µM.

Consider `COC(=O)N[C@H](C(=O)N1CCC[C@H]1c1ncc(-c2ccc(-c3cccc(C(=O)Nc4ccc(CN5CCS(=O)(=O)CC5)cc4)c3)cc2)[nH]1)C(C)C` [Example 28, Methyl N-[(1S)-1-[(2S)-2-[5-[4-[3-[[4-[(1,1-dioxo-1,4-thiazinan-4-yl)methyl]phenyl]carbamoyl]phenyl]phenyl]-1H-imidazol-2-yl]pyrrolidine-1-carbonyl]-2-methyl-propyl]carbamate], for which the IC50 was 7.32 nM in data set [1] (read-out: HCV IC50 1b Replicon), 7.24 nM in data set [1] (setting [4]), 2080 nM in data set [2] (read-out: HCV IC50 Elisa 1a) and 2090 nM in data set [2] (setting [5]). Also, the “HCV TD50 Replicon” value in data set [3] was >25 µM.

In the case of `COC(=O)N[C@@H](C)C(=O)N1CCC[C@H]1c1ncc(-c2ccc(-c3cccc(C(=O)Nc4ccc(CN5CCS(=O)(=O)CC5)cc4)c3)cc2)[nH]1` [Example 29, Methyl N-[(1S)-2-[(2S)-2-[5-[4-[3-[[4-[(1,1-dioxo-1,4-thiazinan-4-yl)methyl]phenyl]carbamoyl]phenyl]phenyl]-1H-imidazol-2-yl]pyrrolidin-1-yl]-1-methyl-2-oxo-ethyl]carbamate], the IC50 in data set [1] (read-out: HCV IC50 1b Replicon) was 33.4 nM; in data set [1] (setting [4]) it was 33.1 nM; in data set [2] (read-out: HCV IC50 Elisa 1a) it was 7620 nM; in data set [2] (setting [5]) it was 7590 nM. The “HCV TD50 Replicon” value in data set [3] was >25 µM.

For `COC(=O)N[C@H](C(=O)N1CCC[C@H]1c1ncc(-c2ccc(-c3cccc(C(=O)Nc4ccc(CN5CCS(=O)(=O)CC5)cc4)c3)cc2)[nH]1)c1ccccc1` [Example 30, Methyl N-[(1S)-2-[(2S)-2-[5-[4-[3-[[4-[(1,1-dioxo-1,4-thiazinan-4-yl)methyl]phenyl]carbamoyl]phenyl]phenyl]-1H-imidazol-2-yl]pyrrolidin-1-yl]-2-oxo-1-phenyl-ethyl]carbamate], the IC50 was 1.2 nM in data set [1] (read-out: HCV IC50 1b Replicon), 1.2 nM in data set [1] (setting [4]), 2480 nM in data set [2] (read-out: HCV IC50 Elisa 1a) and 2450 nM in data set [2] (setting [5]). In data set [3], the “HCV TD50 Replicon” value is >25 µM.

On to `COC(=O)N[C@@H](C(=O)N1CCC[C@H]1c1ncc(-c2ccc(-c3cccc(C(=O)Nc4ccc(CN5CCS(=O)(=O)CC5)cc4)c3)cc2)[nH]1)c1ccccc1` [Example 31, Methyl N-[(1R)-2-[(2S)-2-[5-[4-[3-[[4-[(1,1-dioxo-1,4-thiazinan-4-yl)methyl]phenyl]carbamoyl]phenyl]phenyl]-1H-imidazol-2-yl]pyrrolidin-1-yl]-2-oxo-1-phenyl-ethyl]carbamate], for which the IC50 in data set [1] (read-out: HCV IC50 1b Replicon) was 0.91 nM; in data set [1] (setting [4]) it was 0.912 nM; in data set [2] (read-out: HCV IC50 Elisa 1a), 2700 nM; in data set [2] (setting [5]), 2690 nM. The “HCV TD50 Replicon” value in data set [3] was >25 µM.

Take `CCN(CC)[C@@H](C(=O)N1CCC[C@H]1c1ncc(-c2ccc(-c3cccc(C(=O)Nc4ccc(CN5CCS(=O)(=O)CC5)cc4)c3)cc2)[nH]1)c1ccccc1` [Example 32, 3-[4-[2-[(2S)-1-[(2R)-2-(diethylamino)-2-phenyl-acetyl]pyrrolidin-2-yl]-1H-imidazol-5-yl]phenyl]-N-[4-[(1,1-dioxo-1,4-thiazinan-4-yl)methyl]phenyl]benzamide]: the IC50 in data set [1] (read-out: HCV IC50 1b Replicon) was 0.21 nM; in data set [1] (setting [4]), 0.209 nM; in data set [2] (read-out: HCV IC50 Elisa 1a) it was 1150 nM; in data set [2] (setting [5]) it was 1150 nM. Also, the “HCV TD50 Replicon” value in data set [3] was >25 µM.

As for `COC(=O)N[C@H](C(=O)N1CCOC[C@H]1c1ncc(-c2ccc(-c3ccc(C(=O)Nc4ccc(CN5CCS(=O)(=O)CC5)cc4)cc3)cc2)[nH]1)C(C)C` [Example 46, Methyl N-[(1S)-1-[(3R)-3-[5-[4-[4-[[4-[(1,1-dioxo-1,4-thiazinan-4-yl)methyl]phenyl]carbamoyl]phenyl]phenyl]-1H-imidazol-2-yl]morpholine-4-carbonyl]-2-methyl-propyl]carbamate], the IC50 was 0.71 nM in data set [1] (read-out: HCV IC50 1b Replicon), 0.708 nM in data set [1] (setting [4]), 19.4 nM in data set [2] (read-out: HCV IC50 Elisa 1a) and 19.5 nM in data set [2] (setting [5]). Moreover, in data set [3], the “HCV TD50 Replicon” value was >25 µM.

With `CC(C)(C)OC(=O)N[C@H](C(=O)N1CCOC[C@H]1c1ncc(-c2ccc(-c3ccc(C(=O)Nc4ccc(CN5CCS(=O)(=O)CC5)cc4)cc3)cc2)[nH]1)c1ccccc1` [Example 48, tert-Butyl N-[(1S)-2-[(3R)-3-[5-[4-[4-[[4-[(1,1-dioxo-1,4-thiazinan-4-yl)methyl]phenyl]carbamoyl]phenyl]phenyl]-1H-imidazol-2-yl]morpholin-4-yl]-2-oxo-1-phenyl-ethyl]carbamate], the IC50 is 0.51 nM in data set [1] (read-out: HCV IC50 1b Replicon), 0.513 nM in data set [1] (setting [4]), 52.6 nM in data set [2] (read-out: HCV IC50 Elisa 1a) and 52.5 nM in data set [2] (setting [5]). For the same compound, the “HCV TD50 Replicon” value in data set [3] is >25 µM.

For `CN(C)[C@@H](C(=O)N1CCOC[C@H]1c1ncc(-c2ccc(-c3ccc(C(=O)Nc4ccc(CN5CCS(=O)(=O)CC5)cc4)cc3)cc2)[nH]1)c1ccccc1` [Example 49, 4-[4-[2-[(3R)-4-[(2R)-2-(dimethylamino)-2-phenyl-acetyl]morpholin-3-yl]-1H-imidazol-5-yl]phenyl]-N-[4-[(1,1-dioxo-1,4-thiazinan-4-yl)methyl]phenyl]benzamide], the IC50 in data set [1] (read-out: HCV IC50 1b Replicon) was 0.88 nM; in data set [1] (setting [4]) it was 0.891 nM; in data set [2] (read-out: HCV IC50 Elisa 1a), 77.8 nM; in data set [2] (setting [5]), 77.6 nM. Also, the “HCV TD50 Replicon” value in data set [3] worked out at 19.7 µM.
